Laboratory results taken from patent publication US9102835B2, “Methods of using dyes in association with nucleic acid staining or detection and associated technology” (Biotium, Inc., priority 2005, dated 2015).
“Also recorded” adds a separate entry of the source.

How the values were obtained:
[1] = tested on: 1 kb Plus DNA Latter in agarose gel; test: Post-DNA gel staining
Description: Serial two-fold dilutions of 1 kb Plus DNA Latter from Invitrogen Co. (Carlsbad, Calif.) were made and the resulting DNA samples were loaded onto an agarose gel in four lanes from left to right with a loading of 200 ng, 100 ng, 50 ng, and 25 ng per lane, respectively. The DNA samples were electrophoretically separated in 1×TBE buffer using a standard protocol. The nucleic acid sample was loaded onto the gel from in four columns from left to right with a loading of 200 ng, 100 ng, 50 ng, and 25 ng per lane, respectively, and electrophoretically separated in 1×TBE buffer using a standard protocol. A stock solution of a Dye No. 20 of Table 1 in DMF at about 12 mM concentration was prepared. […] The agarose gel was submerged in the staining solution for approximately 30 minutes to stain the gel. The resulting gel was then viewed using a UV transilluminator with 254 nm excitation.
A similar procedure was followed to prepare post gel staining solutions of Dye No. 29 of Table 1, except that Dye No. 29 was used in place of Dye No. 20 and at various conditions, as now described. […] Identical DNA samples were prepared, loaded onto three separate agarose gels, and separated via standard gel electrophoreses, in the manner described above. Each of the three separate gels was then stained by immersion in a different one of the resulting gels for about 30 minutes. […]

[2] = tested on: Salmonella typhimurium bacteria, strain TA98; conditions: cited from earlier work
[3] = tested on: Salmonella typhimurium bacteria, strain TA98; test: Mutagenicity assay, Muta-ChromoPlate test kit (based on the Ames Test, bacterial reverse mutation); conditions: for Mutagenicity relative to the negative control: in the absence of S9 extract; for Positive wells: with S9 extract (rat liver); for Positive wells / Positive wells, Exp 1 / Positive wells, Exp 2: positive wells out of 36, TA98; for Positive wells, Exp 1 / Positive wells, Exp 2: without S9 extract
Description: The test kit is based on the Ames Test, a bacterial reverse mutation test. The test employs a mutant strain, or several strains, of Salmonella typhimurium bacteria, carrying mutation(s) in the operon coding for histidine biosynthesis. When the bacteria are exposed to mutagenic agents under certain conditions, reverse mutation from amino acid (histidine) auxotrophy to prototrophy occurs. […] S9 extract is a rat liver extract that comprises various metabolic enzymes. The tests associated with the presence of S9 extract were undertaken to give information on the potential genotoxicity of the metabolized dyes. […] Each single test was carried out using 36 wells and the number of positive wells out of each 36 wells was taken as an indicator of the relative mutagenicity levels of the dye under the test conditions. As a negative control, bacteria were also incubated in the absence of a dye.
Mutagenicity assays were carried out using a Muta-ChromoPlate test kit from EBPI (Brampton, Ontario, Canada). […] A solution without a dye (zero dose level) was assayed in the absence and presence of S9 extract, as a control or negative control. S9 extract is a rat liver extract that comprises various metabolic enzymes. The tests associated with the presence of S9 extract were undertaken to provide information on the potential genotoxicity of the metabolized dyes. […] Each single test was carried out using 36 wells and the number of positive wells out of each 36 wells was taken as an indicator of the relative mutagenicity levels of the dye under the test conditions.

[4] = cited from earlier work
[5] = Stability in TBE buffer, optical density at absorption maximum over 24 hours; assay type: physicochemical; conditions: 1.2 μM in 1×TBE buffer, room temperature, monitored at 500 nm
Description: SYBR Gold 10,000× in DMSO from Molecular Probes, Inc. (Eugene, Oreg.) was diluted to 1× working concentration, as recommended by the manufacturer, in 1×TBE buffer. A stock solution of Dye No. 35 of Table 1 in DMSO (12 mM) was diluted to 1.2 μM in 1×TBE buffer. The optical density associated with each of the solutions was monitored at the absorption maximum of the dye (488 nm for SYBR Gold and 500 nm for Dye No. 35) over the course of a 24-hour period at room temperature.

[6] = Hydrolytic, thermal and storage stability in water, electrophoresis buffers and pre-cast gels; assay type: physicochemical
[7] = tested on: 1 kb Plus DNA Latter in agarose gel; test: Pre-cast DNA gel staining; conditions: 1.2 μM in TBE versus EB 1.3 μM; 300 nm UV
Description: An agarose gel solution (1% agarose) was prepared following a standard protocol (J. Roskams et al., Lab Ref: A Handbook of Recipes, Reagents, and Other Reference Tools for Use at the Bench, Cold Spring Harbor Laboratory Press, Cold Spring Harbor, N.Y., 2002). A stock solution of a Dye No. 35 (ET-27) of Table 1 in DMF at 12 mM concentration was prepared. An aliquot of the stock solution of dye was added to the gel solution, while it was hot, resulting in an effective working concentration of the dye of about 1.2 μM. The resulting solution was thoroughly mixed by swirling. The resulting gel solution was poured onto a gel slab to cast the gel. Serial two-fold dilutions of 1 kb Plus DNA Latter from Invitrogen Co. (Carlsbad, Calif.) were made and the resulting DNA samples were loaded onto the gel in four lanes from left to right with a loading of 200 ng, 100 ng, 50 ng, and 25 ng per lane, respectively. The DNA samples were electrophoretically separated in 1×TBE buffer using a standard protocol. The resulting gel was then viewed using a UV transilluminator with 300 nm excitation. The same procedure was followed using a stock solution of EB at about 0.5 μg/mL (or 1.3 μM) in DMF in place of the stock solution of Dye No. 35 of Table 1.
It should be noted that other dyes described herein may be prepared and employed in the manner described in this Example 49, or a similar manner.

[8] = pre-cast gel prepared with the dye

| SMILES | Mutagenicity relative to the negative control [3] | Positive wells ([3]; 0.25 nmole) | Positive wells ([3]; 2.5 nmoles) | Positive wells ([3]; 25 nmoles) | Positive wells, Exp 1 ([3]; 0.25 nmole) | Positive wells, Exp 2 ([3]; 0.25 nmole) | Positive wells, Exp 1 ([3]; 2.5 nmoles) | Positive wells, Exp 2 ([3]; 2.5 nmoles) | Positive wells, Exp 1 ([3]; 25 nmoles) | Positive wells, Exp 2 ([3]; 25 nmoles) | further results |
| --- | --- | --- | --- | --- | --- | --- | --- | --- | --- | --- | --- |
| C[n+]1c(C=C2C=CN(CCCCCC(=O)NCCCOCCOCCOCCCNC(=O)CCCCCN3C=CC(=Cc4sc5ccccc5[n+]4C)c4ccccc43)c3ccccc32)sc2ccccc21 [Dye No. 29, TOTO-13] | – | – | – | – | – | – | – | – | – | – | Sensitivity in post-DNA gel staining versus SYBR Safe and SYBR Green I ([1]; dye 3.6 μM, SYBR dyes 1× in TBE, 200-25 ng DNA per lane, 254-nm UV transilluminator): substantially more sensitive than SYBR Safe and is as sensitive as SYBR Green I |
| CC[n+]1c(-c2ccccc2)c2cc(N)ccc2c2ccc(N)cc21 [EB, ethidium bromide, reference compound] | very weak mutagenicity | 22 | 17 | 16 | 0 | 0 | 0 | 3 | 0 | 3 | Frame shift mutagenicity in Ames Test (known) [2]: known frame shift mutagen; Mutagenicity ([3]; in the presence of S9 extract): significantly greater mutagenicity than Dye No. 35 |
| CCCN(CCCN(C)C)c1cc(/C=C2/Sc3ccccc3N2C)c2ccccc2[n+]1-c1ccccc1 [SYBR Green I] | – | – | – | – | – | – | – | – | – | – | DNA band brightness in post-DNA gel staining ([1]; staining solution in 1×TBE that lacked NaCl): relatively weaker or less bright DNA bands overall; Hydrolytic stability ([4]; aqueous solution, particularly buffers having a pH of 7 or more): hydrolytically unstable; Time within which pre-cast gel is used before losing utility [4, 8]: 24 h |
| Nc1ccc2c(c1)c(-c1ccccc1)[n+](CCCCCC(=O)NCCCOCCOCCOCCCNC(=O)CCCCC[n+]1c(-c3ccccc3)c3cc(N)ccc3c3ccc(N)cc31)c1cc(N)ccc21 [Dye No. 35, ET-27] | very weak mutagenicity | 0 | 9 | 0 | 2 | 0 | 1 | 3 | 1 | 3 | Absorbance over the 24-hour period [5]: relatively constant; Time heated in a microwave oven without decomposition ([6]; dye in TBE buffer): 10 min; Storage time of pre-cast gel without loss of performance [6, 8]: 3 months; Time stable in an electrophoresis buffer, such as TBE buffer ([6]; room temperature): 6 months; Sensitivity with respect to low level DNA, relative to EB [7]: more sensitive with respect to low level DNA; Sensitivity with respect to shorter DNA fragments, relative to EB [7]: more sensitive with respect to shorter DNA fragments; Toxicity and mutagenicity, overall statement ([3]; comparison of Dye No. 35 with EB): relatively low in toxicity and mutagenicity; also recorded: may be less mutagenic than EB |
